Common to all, as to assay: Bacterial growth minimal inhibitory concentration (microdilution, cation-adjusted Mueller-Hinton Broth)
Common to all, as to type: cell-based
Background: Broth dilution looks for growth in wells or tubes with falling amounts of substance.

For assay [1], the system named is E. coli ATCC25922. The following applies: Escherichia coli. Here is the method: (§1) Minimal Inhibitory Concentrations (MICs; mg/L) were determined in cation-adjusted Mueller-Hinton Broth by a microdilution method following the description given in “Methods for Dilution Antimicrobial Susceptibility Tests for Bacteria that Grow Aerobically”, Approved standard, 7th ed., a Clinical and Laboratory Standards Institute (CLSI) Document M7-A7, Wayne, Pa., USA (2006).
(§2) All Example compounds were tested against several Gram-positive and Gram-negative bacteria. […] K. pneumoniae A-651 is a multiply-resistant strain (in particular quinolone-resistant), while E. coli ATCC25922 and P. aeruginosa ATCC27853 are quinolone-sensitive strains.

Assay [2] has as its system K. pneumoniae A-651. The note with it: Klebsiella pneumoniae. Here is the method: as §1, §2
Assay [3] has as its system P. aeruginosa ATCC27853. The note with it: Pseudomonas aeruginosa. The method, then: as §1, §2
Where [4] appears, read: ATCC25922, quinolone-sensitive strain, read-out: MIC for E. coli ATCC25922.
Where [5] appears, read: A651, multiply-resistant strain (in particular quinolone-resistant), read-out: MIC for K. Pneumoniae A-651.
Setting [6] is: ATCC27853, quinolone-sensitive strain, read-out: MIC for P. aeruginosa ATCC27853.

The structures appear in SMILES notation. Values after ≈ are worked out from the molar mass of the structure shown. Counter-ions that a name gives are not always drawn. Like-named read-outs stand apart in the source and are kept apart here.

What is called MIC is the smallest concentration in the dilution series that meets the test's criterion for growth inhibition. With `C[C@@](CCN1Cc2cc(-c3ccc(F)c(F)c3F)cn2C1=O)(C(=O)NO)S(C)(=O)=O` [Example 54, (R)-N-hydroxy-2-methyl-2-(methylsulfonyl)-4-(3-oxo-6-(2,3,4-trifluorophenyl)-1H-pyrrolo[1,2-c]imidazol-2(3H)-yl)butanamide], the minimal inhibitory concentration (MIC) amounted to 0.125 µg/mL (≈ 0.281 µM) in assay [1] (setting [4]), 1 µg/mL (≈ 2.25 µM) in assay [2] (setting [5]) and 1 µg/mL (≈ 2.25 µM) in assay [3] (setting [6]).

For `C[C@@](CCN1Cc2cc(C#Cc3ccc(C4(COC(N)=O)CC4)cc3)cn2C1=O)(C(=O)NO)S(C)(=O)=O` [Example 34, (R)-(1-(4-((2-(4-(hydroxyamino)-3-methyl-3-(methylsulfonyl)-4-oxobutyl)-3-oxo-2,3-dihydro-1H-pyrrolo[1,2-c]imidazol-6-yl)ethynyl)phenyl)cyclopropyl)methyl carbamate], the MIC in assay [1] (setting [4]) came to 0.125 µg/mL (≈ 0.236 µM); in assay [2] (setting [5]), 1 µg/mL (≈ 1.89 µM); in assay [3] (setting [6]), 16 µg/mL (≈ 30.3 µM).

`C[C@@](CCN1Cc2cc(C#Cc3ccc(CN4CCOCC4)cc3)cn2C1=O)(C(=O)NO)S(C)(=O)=O` [Example 25, (R)-N-hydroxy-2-methyl-2-(methylsulfonyl)-4-(6-((4-(morpholinomethyl)phenyl)ethynyl)-3-oxo-1H-pyrrolo[1,2-c]imidazol-2(3H)-yl)butanamide]: the minimum inhibitory concentration (MIC) worked out at 0.125 µg/mL (≈ 0.243 µM) in assay [1] (setting [4]), 0.25 µg/mL (≈ 0.486 µM) in assay [2] (setting [5]) and 1 µg/mL (≈ 1.94 µM) in assay [3] (setting [6]).

Turning to `C[C@@](CCN1Cc2cc(C#CC#C[C@@H]3C[C@@]3(F)CO)cn2C1=O)(C(=O)NO)S(C)(=O)=O` (single isomer, unassigned) [Example 79], the MIC in assay [1] (setting [4]) was found to be 0.25 µg/mL (≈ 0.554 µM); in assay [2] (setting [5]), 0.25 µg/mL (≈ 0.554 µM); in assay [3] (setting [6]), 0.5 µg/mL (≈ 1.11 µM).

For `C[C@@](CCN1Cc2cc(C#Cc3ccc(C4(CN)CC4)cc3)cn2C1=O)(C(=O)NO)S(C)(=O)=O.O=CO` [Example 8, (R)-4-(6-((4-(1-(aminomethyl)cyclopropyl)phenyl)ethynyl)-3-oxo-1H-pyrrolo[1,2-c]imidazol-2(3H)-yl)-N-hydroxy-2-methyl-2-(methylsulfonyl)butanamide formate], the minimal inhibitory concentration (MIC) in assay [1] (setting [4]) was 8 µg/mL; in assay [2] (setting [5]), 8 µg/mL; in assay [3] (setting [6]), 4 µg/mL.

Consider `CC(C)(O)C#Cc1ccc(-c2cc3n(c2)C(=O)N(CCC(C)(C(=O)NO)S(C)(=O)=O)C3)cc1` (racemic) [RE4, (RS)—N-hydroxy-4-(6-(4-(3-hydroxy-3-methylbut-1-yn-1-yl)phenyl)-3-oxo-1H-pyrrolo[1,2-c]imidazol-2(3H)-yl)-2-methyl-2-(methylsulfonyl)butanamide], for which the results for the minimal inhibitory concentration (MIC) in assay [1] (setting [4]), in assay [2] (setting [5]) and in assay [3] (setting [6]) were 0.25 µg/mL (≈ 0.528 µM), 0.5 µg/mL (≈ 1.06 µM) and 2 µg/mL (≈ 4.22 µM), respectively.

As for `C[C@@](CCN1Cc2cc(/C=C/c3ccc(CO)cc3)cn2C1=O)(C(=O)NO)S(C)(=O)=O` [Example 29, (R)-(E)-N-hydroxy-4-(6-(4-(hydroxymethyl)styryl)-3-oxo-1H-pyrrolo[1,2-c]imidazol-2(3H)-yl)-2-methyl-2-(methylsulfonyl)butanamide], the values for the minimum inhibitory concentration (MIC) in assay [1] (setting [4]), in assay [2] (setting [5]) and in assay [3] (setting [6]) were 0.25 µg/mL (≈ 0.559 µM), 0.5 µg/mL (≈ 1.12 µM) and 2 µg/mL (≈ 4.47 µM), respectively.

Turning to `C[C@@](CCN1Cc2cc(C#CC#CC3[C@@H](CO)[C@H]3CO)cn2C1=O)(C(=O)NO)S(C)(=O)=O` (stereo partly drawn) [Example 42, (R)-4-(6-(((2R,3S)-2,3-bis(hydroxymethyl)cyclopropyl)buta-1,3-diyn-1-yl)-3-oxo-1H-pyrrolo[1,2-c]imidazol-2(3H)-yl)-N-hydroxy-2-methyl-2-(methylsulfonyl)butanamide], the MIC turned out to be 8 µg/mL (≈ 17.3 µM) in assay [1] (setting [4]), 8 µg/mL (≈ 17.3 µM) in assay [2] (setting [5]) and 4 µg/mL (≈ 8.63 µM) in assay [3] (setting [6]).

For the compound `CC(C)(O)c1ccc(C#Cc2cc3n(c2)C(=O)N(CC[C@](C)(C(=O)NO)S(C)(=O)=O)C3)cc1` [Example 10, (R)-N-hydroxy-4-(6-((4-(2-hydroxypropan-2-yl)phenyl)ethynyl)-3-oxo-1H-pyrrolo[1,2-c]imidazol-2(3H)-yl)-2-methyl-2-(methylsulfonyl)butanamide], the minimal inhibitory concentration (MIC) in assay [1] (setting [4]) turned out to be 0.25 µg/mL (≈ 0.528 µM); in assay [2] (setting [5]), 0.25 µg/mL (≈ 0.528 µM); in assay [3] (setting [6]), 0.5 µg/mL (≈ 1.06 µM).

For the compound `C[C@@](CCN1Cc2cc(C#Cc3ccc(CCO)cc3)cn2C1=O)(C(=O)NO)S(C)(=O)=O` [Example 16, (R)-N-hydroxy-4-(6-((4-(2-hydroxyethyl)phenyl)ethynyl)-3-oxo-1H-pyrrolo[1,2-c]imidazol-2(3H)-yl)-2-methyl-2-(methylsulfonyl)butanamide], the MIC in assay [1] (setting [4]) was at most 0.063 µg/mL; in assay [2] (setting [5]), 0.25 µg/mL (≈ 0.544 µM); in assay [3] (setting [6]), 0.5 µg/mL (≈ 1.09 µM).

Turning to `C[C@@](CCN1Cc2cc(C#Cc3ccc(C4(N)COC4)cc3)cn2C1=O)(C(=O)NO)S(C)(=O)=O` [Example 69, (R)-4-(6-((4-(3-aminooxetan-3-yl)phenyl)ethynyl)-3-oxo-1H-pyrrolo[1,2-c]imidazol-2(3H)-yl)-N-hydroxy-2-methyl-2-(methylsulfonyl)butanamide], the MIC in assay [1] (setting [4]) amounted to 0.5 µg/mL (≈ 1.03 µM); in assay [2] (setting [5]) it was 2 µg/mL (≈ 4.11 µM); in assay [3] (setting [6]), 2 µg/mL (≈ 4.11 µM).

On to `C[C@@](CCN1Cc2cc(-c3ccc(Cl)cc3F)cn2C1=O)(C(=O)NO)S(C)(=O)=O` [Example 48, (R)-4-(6-(4-chloro-2-fluorophenyl)-3-oxo-1H-pyrrolo[1,2-c]imidazol-2(3H)-yl)-N-hydroxy-2-methyl-2-(methylsulfonyl)butanamide], for which the MIC is at most 0.063 µg/mL in assay [1] (setting [4]), 0.25 µg/mL (≈ 0.563 µM) in assay [2] (setting [5]) and 1 µg/mL (≈ 2.25 µM) in assay [3] (setting [6]).

For `C[C@@](CCN1Cc2cc(C#Cc3ccc(N4CCN(CCO)C4=O)cc3)cn2C1=O)(C(=O)NO)S(C)(=O)=O` [Example 20, (R)-N-hydroxy-4-(6-((4-(3-(2-hydroxyethyl)-2-oxoimidazolidin-1-yl)phenyl)ethynyl)-3-oxo-1H-pyrrolo[1,2-c]imidazol-2(3H)-yl)-2-methyl-2-(methylsulfonyl)butanamide], the MIC in assay [1] (setting [4]) is 1 µg/mL (≈ 1.84 µM); in assay [2] (setting [5]), 4 µg/mL (≈ 7.36 µM); in assay [3] (setting [6]), 4 µg/mL (≈ 7.36 µM).

On to `C[C@@](CCN1Cc2cc(C#Cc3ccc(C4(O)COC4)cc3)cn2C1=O)(C(=O)NO)S(C)(=O)=O` [Example 2, (R)-N-hydroxy-4-(6-((4-(3-hydroxyoxetan-3-yl)phenyl)ethynyl)-3-oxo-1H-pyrrolo[1,2-c]imidazol-2(3H)-yl)-2-methyl-2-(methylsulfonyl)butanamide], for which the minimal inhibitory concentration (MIC) in assay [1] (setting [4]) came to 0.5 µg/mL (≈ 1.03 µM); in assay [2] (setting [5]) it was 1 µg/mL (≈ 2.05 µM); in assay [3] (setting [6]), 1 µg/mL (≈ 2.05 µM).

Regarding `Cc1ccc(-c2cc3n(c2)C(=O)N(CCC(C)(C(=O)NO)S(C)(=O)=O)C3)c(F)c1` (racemic) [RE9, (RS)-4-(6-(2-fluoro-4-methylphenyl)-3-oxo-1H-pyrrolo[1,2-c]imidazol-2(3H)-yl)-N-hydroxy-2-methyl-2-(methylsulfonyl)butanamide], the figures for the MIC in assay [1] (setting [4]), in assay [2] (setting [5]) and in assay [3] (setting [6]) were 0.125 µg/mL (≈ 0.295 µM), 2 µg/mL (≈ 4.72 µM) and 0.5 µg/mL (≈ 1.18 µM), respectively.

Turning to `C[C@@](CCN1Cc2cc(C#Cc3ccc(CNS(C)(=O)=O)cc3)cn2C1=O)(C(=O)NO)S(C)(=O)=O` [Example 82, (R)-N-hydroxy-2-methyl-4-(6-((4-(methylsulfonamidomethyl)phenyl)ethynyl)-3-oxo-1H-pyrrolo[1,2-c]imidazol-2(3H)-yl)-2-(methylsulfonyl)butanamide], the MIC in assay [1] (setting [4]) worked out at 0.5 µg/mL (≈ 0.957 µM); in assay [2] (setting [5]), 1 µg/mL (≈ 1.91 µM); in assay [3] (setting [6]) it was 1 µg/mL (≈ 1.91 µM).

In the case of `C[C@@](CCN1Cc2cc(C#CC#CC3(N)COC3)cn2C1=O)(C(=O)NO)S(C)(=O)=O` [Example 39, (R)-4-(6-((3-aminooxetan-3-yl)buta-1,3-diyn-1-yl)-3-oxo-1H-pyrrolo[1,2-c]imidazol-2(3H)-yl)-N-hydroxy-2-methyl-2-(methylsulfonyl)butanamide hydrochloride], the MIC stood at 2 µg/mL in assay [1] (ATCC25922, read-out: MIC for E. coli ATCC25922); 4 µg/mL in assay [2] (A651, read-out: MIC for K. Pneumoniae A-651); 4 µg/mL in assay [3] (ATCC27853, read-out: MIC for P. aeruginosa ATCC27853).

For the compound `C[C@@](CCN1Cc2cc(-c3ccc(OC[C@H](O)CO)cc3F)cn2C1=O)(C(=O)NO)S(C)(=O)=O` [Example 43, (R)-4-(6-(4-((R)-2,3-dihydroxypropoxy)-2-fluorophenyl)-3-oxo-1H-pyrrolo[1,2-c]imidazol-2(3H)-yl)-N-hydroxy-2-methyl-2-(methylsulfonyl)butanamide], the minimum inhibitory concentration (MIC) in assay [1] (setting [4]) stood at 8 µg/mL (≈ 16 µM); in assay [2] (setting [5]) it was 16 µg/mL (≈ 32 µM); in assay [3] (setting [6]) it was 8 µg/mL (≈ 16 µM).

As to `C[C@@](CCN1Cc2cc(C#Cc3ccc(C4(CO)CC4)cc3F)cn2C1=O)(C(=O)NO)S(C)(=O)=O` [Example 19, (R)-4-(6-((2-fluoro-4-(1-(hydroxymethyl)cyclopropyl)phenyl)ethynyl)-3-oxo-1H-pyrrolo[1,2-c]imidazol-2(3H)-yl)-N-hydroxy-2-methyl-2-(methylsulfonyl)butanamide], the minimum inhibitory concentration (MIC) in assay [1] (setting [4]) is 0.25 µg/mL (≈ 0.496 µM); in assay [2] (setting [5]), 0.5 µg/mL (≈ 0.993 µM); in assay [3] (setting [6]), 1 µg/mL (≈ 1.99 µM).

As to `C[C@@](CCN1Cc2cc(C#Cc3ccc([C@@H](O)CO)cc3)cn2C1=O)(C(=O)NO)S(C)(=O)=O` [Example 17, (R)-4-(6-((4-((R)-1,2-dihydroxyethyl)phenyl)ethynyl)-3-oxo-1H-pyrrolo[1,2-c]imidazol-2(3H)-yl)-N-hydroxy-2-methyl-2-(methylsulfonyl)butanamide], the MIC in assay [1] (setting [4]), in assay [2] (setting [5]) and in assay [3] (setting [6]) was 1 µg/mL (≈ 2.1 µM) throughout.

On to `COc1ccc(-c2cc3n(c2)C(=O)N(CC[C@](C)(C(=O)NO)S(C)(=O)=O)C3)c(F)c1F` [Example 55, (R)-4-(6-(2,3-difluoro-4-methoxyphenyl)-3-oxo-1H-pyrrolo[1,2-c]imidazol-2(3H)-yl)-N-hydroxy-2-methyl-2-(methylsulfonyl)butanamide], for which the results for the MIC in assay [1] (setting [4]), in assay [2] (setting [5]) and in assay [3] (setting [6]) were 0.125 µg/mL (≈ 0.273 µM), 1 µg/mL (≈ 2.19 µM) and 4 µg/mL (≈ 8.74 µM), respectively.

These data come from patent US10106544B2, “1,2-dihydro-3H-pyrrolo[1,2-C]imidazol-3-one derivatives and their use as antibacterial agents” (priority 2014, dated 2018).
